Measured values from US9932522B2, “Electrochromic compound, electrochromic composition, display element, and dimming element” (Ricoh Company, Ltd., priority 2014, dated 2018).

Test: Solubility evaluation of electrochromic compound
Details: dissolved to saturation, filtered through 0.5 μm PTFE filter, residue weighed; for Solubility, solvent TFP: 2,2,3,3-tetrafluoropropanol (TFP); for Solubility, solvent DMF: N,N-dimethylformamide (DMF)
Description: The residue was filtered with a PTFE filter having the average pore diameter of 0.5 μm, and the solvent was dried under the reduced pressure. Then, the residue was weight to calculate an amount of the solute dissolved in each solvent.

SMILES	Solubility, solvent TFP	Solubility, solvent DMF
O=P(O)(O)CCCCCCCC[n+]1ccc(-c2ccc(-c3cccs3)cc2)cc1.[Br-] [Compound 1b]	A (the solubility of 5% by mass or greater was attained relative to each solvent)	A (the solubility of 5% by mass or greater was attained relative to each solvent)
O=P(O)(O)CCCCCCCC[n+]1ccc(-c2ccc(-c3cncs3)cc2)cc1.[Br-] [Compound 2b]	A (the solubility of 5% by mass or greater was attained relative to each solvent)	A (the solubility of 5% by mass or greater was attained relative to each solvent)
O=P(O)(O)CCCCCCCC[n+]1ccc(-c2ccc(-c3nccs3)cc2)cc1.[Br-] [Compound 3b]	A (the solubility of 5% by mass or greater was attained relative to each solvent)	A (the solubility of 5% by mass or greater was attained relative to each solvent)
COc1nc(OC)nc(-c2ccc(-c3cc[n+](CCCCCCCCP(=O)(O)O)cc3)cc2)n1.[Br-] [Compound 4b]	A (the solubility of 5% by mass or greater was attained relative to each solvent)	A (the solubility of 5% by mass or greater was attained relative to each solvent)
O=P(O)(O)CCCCCCCC[n+]1ccc(-c2ccc(-c3nc(-c4ccccc4)nc(-c4ccccc4)n3)cc2)cc1.[Br-] [Compound 5b]	A (the solubility of 5% by mass or greater was attained relative to each solvent)	A (the solubility of 5% by mass or greater was attained relative to each solvent)
O=P(O)(O)CCCCCCCC[n+]1ccc(-c2ccc(-c3ncccn3)cc2)cc1.[Br-] [Compound 6b]	A (the solubility of 5% by mass or greater was attained relative to each solvent)	A (the solubility of 5% by mass or greater was attained relative to each solvent)
O=P(O)(O)CCCCCCCC[n+]1cccc(-c2ccc(-c3cccs3)cc2)c1 [Compound 12b]	A (the solubility of 5% by mass or greater was attained relative to each solvent)	A (the solubility of 5% by mass or greater was attained relative to each solvent)
